# According to ChEMBL document CHEMBL1128418, “Synthesis and activity against multidrug resistance in Chinese hamster ovary cells of new acridone-4-carboxamides” (J Med Chem, 1995):
# Test system: CHRC5 cell line
# Assay: Reversal of sensitivity of multidrug resistant chinese hamster ovary cell line CHRC/5 expressed as concentration that restores 50% of cytotoxic activity of 5 ug/mL toward doxorubicin
# Format: functional, cell-based
# Settings: Cricetulus griseus; call rule not given here
row,Compound,EC50
1,COc1ccc(CCN(C)CCCC(C#N)(c2ccc(OC)c(OC)c2)C(C)C)cc1OC (stereo not given),3 µM

# Same assay, conditions: Cricetulus griseus, read-out: EC50
row,Compound,EC50
1,COc1ccc(CN(C)CCCc2ccc(NC(=O)c3cccc4c(O)c5ccccc5nc34)cc2)cc1OC,0.06 µM
2,COc1ccc(CN(C)CCc2ccc(NC(=O)c3cccc4c(O)c5cccc(OC)c5nc34)cc2)cc1OC,0.021 µM
3,COc1ccc(CCN(C)CCOc2ccc(NC(=O)c3cccc4c(=O)c5ccccc5oc34)cc2)cc1OC,0.18 µM
4,COc1ccc(CCN(C)CCOc2ccc(NC(=O)c3cccn4c(=O)c5ccccc5nc34)cc2)cc1OC,0.21 µM
5,COc1ccc(CN(C)CCc2ccc(NC(=O)c3cccc4c(O)c5ccccc5nc34)cc2)cc1OC,0.027 µM
6,COc1ccc(CN(C)CCc2ccc(NC(=O)c3cccc4c(O)c5cccc([N+](=O)[O-])c5nc34)cc2)cc1OC,0.195 µM
7,COc1ccc(CN(C)CCc2ccc(NC(=O)c3cccc4c(O)c5cccc(F)c5nc34)c(C)c2)cc1OC,0.088 µM
8,COc1cc2c(cc1OC)CN(CCc1ccccc1NC(=O)c1cccc3c(O)c4cccc(OC)c4nc13)CC2,0.305 µM
9,CSc1ccc(CN(C)CCOc2ccc(NC(=O)c3cccc4c(O)c5ccccc5nc34)cc2)cc1,0.69 µM
10,COc1ccc(CN(C)CCOc2ccc(NC(=O)c3cccc4c(O)c5cccc(OC)c5nc34)c(C)c2)cc1OC,0.28 µM
11,COc1ccc(CN(C)C/C=C/c2ccc(NC(=O)c3cccc4c(O)c5ccccc5nc34)cc2)cc1OC,0.27 µM
12,COc1ccc(CN(C)CCCc2cccc(NC(=O)c3cccc4c(O)c5cccc(OC)c5nc34)c2)cc1OC,0.045 µM
13,COc1ccc(CCN(C)CCOc2ccc(NC(=O)c3cccc4c(=O)c5ccccc5sc34)cc2)cc1OC,0.09 µM
14,CCN(CCOc1ccc(NC(=O)c2cccc3c(=O)c4ccccc4[nH]c23)cc1)Cc1ccccc1,0.11 µM
15,COc1ccc(CCN(C)CCOc2ccc(NC(=O)c3cccc4c3Oc3ccccc3O4)cc2)cc1OC,0.46 µM
16,O=C(Nc1ccc(OCCCN2CCc3ccccc3C2)cc1)c1cccc2c(=O)c3ccccc3[nH]c12,0.21 µM
17,CN(CCOc1ccc(NC(=O)c2cccc3c(=O)c4ccccc4[nH]c23)cc1)Cc1ccc(F)cc1,0.93 µM
18,COc1ccc(CCN(C)CCOc2ccc(NC(=O)c3cccc4c3C(=O)c3ccccc3C4=O)cc2)cc1OC,1.5 µM
19,CN(CCOc1ccc(NC(=O)c2cccc3c(=O)c4ccccc4[nH]c23)cc1)Cc1ccc2c(c1)OCO2,0.55 µM
20,COc1ccc(CN(C)CCOc2ccc(NC(=O)c3cccc4c(=O)c5ccccc5[nH]c34)cc2)cc1,0.65 µM

row,Compound,EC50
1,COc1ccc(CCN(C)CCOc2ccc(NC(=O)c3cccc4c3Nc3ccccc3S4)cc2)cc1OC,0.18 µM
2,CN(CCOc1ccc(NC(=O)c2cccc3c(=O)c4ccccc4[nH]c23)cc1)Cc1ccccc1,0.72 µM
3,Cc1ccc(CN(C)CCOc2ccc(NC(=O)c3cccc4c(=O)c5ccccc5[nH]c34)cc2)cc1,0.24 µM
4,COc1ccccc1CN(C)CCOc1ccc(NC(=O)c2cccc3c(=O)c4ccccc4[nH]c23)cc1,0.51 µM
5,COc1ccc(CNCCCOc2ccc(NC(=O)c3cccc4c(=O)c5ccccc5[nH]c34)cc2)cc1OC,0.525 µM
6,COc1cc2c(cc1OC)CN(CCCOc1ccc(NC(=O)c3cccc4c(=O)c5ccccc5[nH]c34)cc1)CC2,0.05 µM
7,CN(CCOc1ccc(NC(=O)c2cccc3c(=O)c4ccccc4[nH]c23)cc1)Cc1ccc(C(F)(F)F)cc1,0.8 µM
8,COc1cc2c(cc1OC)CN(CCc1ccc(NC(=O)c3cccc4c(=O)c5cccc(OC)c5[nH]c34)cc1)CC2,0.021 µM
9,COc1ccc(CN(C)Cc2ccc(NC(=O)c3cccc4c(O)c5ccccc5nc34)cc2)cc1OC,0.37 µM
10,COc1ccc(CN(C)CCOc2ccc(NC(=O)c3cccc4c(=O)cc(-c5ccccc5)[nH]c34)cc2)cc1OC,0.33 µM
11,COc1ccc(CCN(C)CCOc2ccc(NC(=O)c3cccc4c(Cl)c5ccccc5nc34)cc2)cc1OC,0.66 µM
12,COc1ccc(CCN(C)CCCOc2ccc(NC(=O)c3cccc4c(=O)c5ccccc5[nH]c34)cc2)cc1OC,0.09 µM
13,COc1ccc(CN(C)CCc2ccccc2NC(=O)c2cccc3c(O)c4cccc(OC)c4nc23)cc1OC,0.465 µM
14,COc1cc2c(cc1OC)CN(CCCc1cccc(NC(=O)c3cccc4c(O)c5cccc(OC)c5nc34)c1)CC2,0.048 µM
15,COc1cc2c(cc1OC)CN(CCc1cccc(NC(=O)c3cccc4c(O)c5cccc(OC)c5nc34)c1)CC2,0.155 µM
16,COc1ccc(CN(C)CCc2ccc(NC(=O)c3cccc4c(O)c5cccc(C)c5nc34)cc2)cc1OC,0.021 µM
17,COc1ccc(CN(C)CCCOc2ccc(NC(=O)c3cccc4c(O)c5cccc(F)c5nc34)c(C)c2)cc1OC,0.063 µM
18,COc1ccc(CN(C)CCCSc2ccc(NC(=O)c3cccc4c(O)c5ccccc5nc34)cc2)cc1OC,0.045 µM
19,COc1ccc(CN(C)CCc2ccc(NC(=O)c3cccc4c(O)c5cccc(F)c5nc34)cc2)cc1OC,0.018 µM
20,COc1ccc(CN(C)C/C=C/Cc2ccc(NC(=O)c3cccc4c(O)c5ccccc5nc34)cc2)cc1OC,0.15 µM

row,Compound,EC50
1,COc1ccc(CN(C)CCCCc2ccc(NC(=O)c3cccc4c(O)c5cccc(N)c5nc34)cc2)cc1OC,0.177 µM
2,CN(CCCCCCCCNC(=O)c1cccc2c(O)c3ccccc3nc12)Cc1ccccc1,1.1 µM
3,COc1ccc(CN(C)CCOc2ccc(NC(=O)c3cccc4nc5ccccc5nc34)cc2)cc1OC,0.33 µM
4,COc1cc(CCN(C)Cc2ccc(OC)c(OC)c2)ccc1NC(=O)c1cccc2c(O)c3cccc(F)c3nc12,0.021 µM
5,COc1ccc(CN(C)CCOc2ccc(NC(=O)c3cccc4c(O)c5ccccc5nc34)cc2)cc1OC,0.09 µM
6,COc1ccc(CN(C)CCCCc2ccc(NC(=O)c3cccc4c(O)c5ccccc5nc34)cc2)cc1OC,0.03 µM
7,COc1cc(CCCN(C)Cc2ccc(OC)c(OC)c2)ccc1NC(=O)c1cccc2c(O)c3cccc(OC)c3nc12,0.037 µM
8,COc1ccc(CN(C)CCCOc2ccc(NC(=O)c3cccc4c(O)c5ccccc5nc34)cc2)cc1OC,0.036 µM
9,COc1cc(OC)c2nc3c(C(=O)Nc4ccc(CCN(C)Cc5ccc(OC)c(OC)c5)cc4)cccc3c(O)c2c1,0.022 µM
10,COc1cc(OCCCN(C)Cc2ccc(OC)c(OC)c2)ccc1NC(=O)c1cccc2c(O)c3cccc(F)c3nc12,0.03 µM
11,COc1cc(OCCCN(C)Cc2ccc(OC)c(OC)c2)ccc1NC(=O)c1cccc2c(O)c3cccc(C)c3nc12,0.04 µM
12,CCc1cc(OCCCN(C)Cc2ccc(OC)c(OC)c2)ccc1NC(=O)c1cccc2c(O)c3cccc(F)c3nc12,0.09 µM
13,COc1ccc(CN(C)CCCc2ccccc2NC(=O)c2cccc3c(O)c4cccc(OC)c4nc23)cc1OC,0.585 µM
14,COc1cc(CCCN(C)Cc2ccc(OC)c(OC)c2)ccc1NC(=O)c1cccc2c(O)c3cccc(F)c3nc12,0.043 µM
15,COc1ccc(CN(C)CCc2ccc(NC(=O)c3cccc4c(O)c5cccc(C)c5nc34)c(C)c2)cc1OC,0.08 µM
16,COc1ccc(CN(C)CCCOc2ccc(NC(=O)c3cccc4c(O)c5cccc(C)c5nc34)c(C)c2)cc1OC,0.093 µM
17,COc1ccc(CN(C)CCc2ccc(NC(=O)c3cccc4c(=O)c5ccccc5n(C)c34)cc2)cc1OC,0.21 µM
18,COc1ccc(CN(C)CCCCCc2ccc(NC(=O)c3cccc4c(O)c5ccccc5nc34)cc2)cc1OC,0.15 µM
19,COc1cc2c(cc1OC)CN(CCc1ccc(NC(=O)c3cccc4c(O)c5cccc(F)c5nc34)cc1)CC2,0.033 µM
20,COc1ccc2nc3c(C(=O)Nc4ccc(CCCCN(C)Cc5ccc(OC)c(OC)c5)cc4)cccc3c(O)c2c1,0.12 µM

# Test system: CHRC5 cell line
# Assay: Reversal of sensitivity of multidrug resistant chinese hamster ovary cell line CHRC/5 expressed as concentration that restores 50% of cytotoxic activity of 5 ug/mL toward doxorubicin; Not active
# Format: functional, cell-based, Cricetulus griseus
# Settings: not given
row,Compound,EC50
1,COc1ccc(CCN(C)CCCN2CCN(C(=O)c3cccc4c(O)c5ccccc5nc34)CC2)cc1OC,Not Active
2,CCN(CC)CCOc1ccc(NC(=O)c2cccc3c(=O)c4ccccc4[nH]c23)cc1,Not Active
3,COc1ccc(CCN(C)CCCN2CCC(NC(=O)c3cccc4c(=O)c5ccccc5[nH]c34)CC2)cc1OC,Not Active

# Test system: CHRC5 cell line
# Assay: Reversal of sensitivity of multidrug resistant chinese hamster ovary cell line CHRC/5 expressed as concentration that restores 50% of cytotoxic activity of 5 ug/mL toward doxorubicin; Toxic alone to cells at 5 uM
# Format: functional, cell-based, Cricetulus griseus
# Settings: not given
row,Compound,EC50
1,COc1ccc(CCN(C)CCOc2ccc(NC(=O)c3cccc4cc5ccccc5nc34)cc2)cc1OC,Toxic
